# Where a SMILES comes first, the peptide text is derived from it.
# Biological target: T1, DppA (E. coli dipeptide binding protein) (Escherichia coli, UniProt P23847)
# T1 sequence (P23847 29-535): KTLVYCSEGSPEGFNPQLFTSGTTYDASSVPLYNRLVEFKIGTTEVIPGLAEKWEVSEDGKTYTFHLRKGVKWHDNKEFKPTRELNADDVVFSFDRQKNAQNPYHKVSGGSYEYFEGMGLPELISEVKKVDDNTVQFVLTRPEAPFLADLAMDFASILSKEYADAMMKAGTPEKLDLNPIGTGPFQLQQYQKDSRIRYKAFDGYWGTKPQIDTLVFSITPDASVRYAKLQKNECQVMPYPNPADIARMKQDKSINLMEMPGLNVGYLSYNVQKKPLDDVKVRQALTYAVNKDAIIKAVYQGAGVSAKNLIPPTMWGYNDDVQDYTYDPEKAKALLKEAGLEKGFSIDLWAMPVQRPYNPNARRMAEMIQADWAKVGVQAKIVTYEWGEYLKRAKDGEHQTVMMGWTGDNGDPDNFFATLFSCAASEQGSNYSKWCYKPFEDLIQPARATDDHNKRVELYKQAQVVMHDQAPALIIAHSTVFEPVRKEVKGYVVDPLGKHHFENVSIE
# Assay: isothermal titration calorimetry
# From the text: isothermal titration calorimetry on DppA (E. coli dipeptide binding protein)
row,Kd [nM],Structure (SMILES)
1,37,"C[C@H](N)C(=O)N[C@@H](C)C(=O)O [AA, Alanine–Alanine (A–A)] (H-Ala-Ala-OH)"
2,357,"C[C@H](N)C(=O)N[C@@H](Cc1ccccc1)C(=O)O [AF, Alanine–Phenylalanine (A–F)]"

# — paper PMC8566422, “Thermodynamics of semi-specific ligand recognition: the binding of dipeptides to the E.coli dipeptide binding protein DppA” (European Biophysics Journal, 2021)
